{"source": "patent US20010025105A1", "about": "“Certain substituted 1-aryl-3-piperazine-1'-yl propanones” (Molecular Geriatarics Corporation, priority 1997, published 2001)", "note": "pIC50: −log10 of the molar value. Structures can show the parent of a compound that is named as a salt.", "data": [{"system": "TG3 immunoreactivity in OKA treated MSN1a cells", "experiment": "MSN1a cell culture model, ELISA with TG3 antibody, okadaic acid treated cells", "format": "cell-based, human", "conditions": "1 μM OKA, 2 hrs at 37° C., read-out: IC50 for inhibition of TG3 immunoreactivity in OKA treated MSN1a cells", "experimental": "(§1) This assay can thus be used to determine whether a drug is capable of preventing or intervening in AD by attenuating the production of abnormally phosphorylated paired helical filament epitopes associated with AD. To determine whether a drug is capable of preventing or intervening in AD activity, the MSN1a cells containing tau and associated proteins are treated with OKA capable of greatly increasing immunoreactivity of the MSN1a cells with AD specific monoclonal antibodies. Then, either prior to or concomitantly with OKA treatment, a compound of the present invention is added to the culture. If the compound prevents the induction of the AD epitopes in the MSN1a cells treated with OKA, then it is said to have anti-AD activity. If the AD-specific antibodies are highly reactive with the neuroblastoma cells following OKA treatment in the presence of compound, then the compound is said to be ineffectual against AD.\n(§2) The MSN1a human neuroblastoma line was subcloned from a population of MSN cells obtained from the laboratory of Dr. Peter Davies (Albert Einstein College of Medicine, New York, N.Y.). Cells were grown and maintained in flasks in RPMI 1640 medium, supplemented with 15% fetal calf serum, 100 U/ml penicillin, 100 U/ml Streptomycin, 0.5 ug/ml fungizone under 7.5% CO2 at 37° C.\n(§3) Stock solutions of drugs were prepared by dissolving the anhydrous powders to final concentrations of either 10 or 20 mM in 50% aqueous or 100% dimethyl sulfoxide (DMSO), respectively. Working solutions of drugs were prepared by dilution of the stock solutions with Kreb's Ringer in Hepes buffer (KRH) (128 mM NaCl, 5 mM KCl, 2.5 mM CaCl2 1.2 mM MgSO4, 1 mM Na2HPO4, 10 mM dextrose, 20 mM Hepes, pH 7.4). OKA is maintained as a 1 mM stock solution in DMSO prior to dilution to 4 μM in KRH.\n(§4) MSN cells grown in 225 cm^2 flasks are removed from the incubator, their medium decanted and replaced with 50 ml pre-warmed KRH. The cells are harvested by scraping prior to sedimentation at 1000 rpm for 5 min. The supernatants are discarded and the cell pellets are resuspended, the cells counted and diluted to a density of 2×10^4 cells/[…]. The cells are then plated in a 96 well plate at 50 μl/well and 25 μl of 4 μM OKA and 25 μl of drug are then added to the appropriate wells; the entire 96 well plate is then incubated for 2 hrs at 37° C. Depending on the dilution of drug added, this yields individual wells containing 1 μM OKA, 0-64 μM drug and 2×10^4 cells in 0.26% DMSO in KRH. The incubation is terminated by the addition of 20 μl of 6X extraction buffer and immediate freezing at −80° C. for at least one hr. The 6X extraction buffer contains: 25 mM Tris-HCl, pH 7.6, 150 mM NaCl, 5 mM EDTA, 24 mM β-glycerol phosphate, 10 μg/ml APMSF (4-amidinophenylmethane-sulfonyl flouride), and 2.5 μg/ml each of leupeptin, aprotinin, and pepstatin. The plates are thawed in a 37° C. water bath and 20 μl of cell lysate is added to a replica well in an ELISA plate that already contains 80 μl of coating buffer (15 mM Na2CO3 and 35 mM NaHCO3, pH 9.6). The plates are allowed to coat overnight at 4° C. The plates are washed four times with deionized water and then blocked for 30 min at 37° C. with 200 μl/well pre-warmed 1% bovine serum albumin in 10 mM Tris-HCl, pH 7.4, 150 mM NaCl, 3 mM NaN3 (BSA-TBS). After the blocking solution is removed, 100 μl/well of an appropriate dilution of pre-warmed primary antibody (eg., TG3 or PHF-1) in BSA-TBS is added and incubated at 37° C. for 30 min. Incubation is terninated by washing four times in deionized water at which time 100 μl of an appropriate dilution of pre-warmed secondary antibody (conjugated to alkaline phosphatase) in BSA-TBS is added to each well in the ELISA plate. Incubation is performed for 30 min at 37° C. followed by washing 4 times with deionized water. […] of prewarmed chromogenic substrate (1 mg/mnl p-nitrophenyl phosphate in 10% diethanolamine, 3 mM NaN3, 0.5 mM MgCl2, pH 9.8) is added and the plate incubated for 30 min at 37° C. […]", "values": [{"compound": "CS(=O)(=O)Nc1ccc(C(=O)CCN2CCN(Cc3cc(F)ccc3F)CC2)cc1", "note": "[Example 36, 1-p-Methanesulfonamidophenyl)-3-(2″,5″-difluorobenzyl-1′-piperazinyl)-1-propanone dihydrochloride]", "pIC50": 4.60}, {"compound": "1-(-Methylthiophenyl)-3-(4′-benzyl-1′-piperazinyl)-1-propanonedihydrochloride [Example 14]", "pIC50": 5.24}, {"compound": "O=C(CCN1CCN(C(=O)c2ccccc2C(F)(F)F)CC1)c1ccc([N+](=O)[O-])cc1", "note": "[Example 39]", "pIC50": 5.00}, {"compound": "O=C(CCN1CCN(Cc2ccccc2F)CC1)c1ccc([N+](=O)[O-])cc1", "note": "[Example 32, 1-(p-Nitrophenyl)-3-[4′-(o-fluorobenzyl)-1′-piperazinyl]-1-propanone dihydrochloride]", "pIC50": 5.21}, {"compound": "1-(1-Nitrophenyl)-3-[4′-(2″,3″-difluorobenzoyl)-1′-piperazinyl]-1-propanone dihydrochloride [Example 63]", "pIC50": 5.14}, {"compound": "O=C(CCN1CCN(Cc2ccccc2F)CC1)c1ccc(I)cc1", "note": "[Example 29, 1-(p-Iodophenyl)-3-[4′-(o-fluorobenzyl)-1′-piperazinyl]-1-propanone dihydrochloride]", "pIC50": 5.06}, {"compound": "O=C(CCN1CCN(Cc2ccc(F)c(F)c2)CC1)c1ccc([N+](=O)[O-])cc1", "note": "[Example 55, 1-(p-Nitrophenyl)-3-[4′-(3″,4″-difluorobenzyl)-1′-piperazinyl]-1-propanone dihydrochloride]", "pIC50": 5.20}, {"compound": "O=C(CCN1CCN(Cc2ccccc2)CC1)c1ccc(Br)cc1", "note": "[Example 16, 1-(p-Bromophenyl)-3-(4′-benzyl-1′-piperazinyl)-1-propanone dihydrochloride]", "pIC50": 5.28}, {"compound": "O=C(CCN1CCN(Cc2cccc(F)c2)CC1)c1ccc([N+](=O)[O-])cc1", "note": "[Example 42, 1-(p-Nitrophenyl)-3-[4′-(m-fluorobenzyl)-1′-piperazinyl]-1-propanonedihydrochloride]", "pIC50": 5.24}, {"compound": "O=C(CCN1CCN(Cc2ccccc2)CC1)c1ccccc1I", "note": "[Example 81, 1-o-Iodophenyl-3-(4′-benzyl-1′-piperazinyl)-1-propanone dihydrochloride]", "pIC50": 5.35}, {"compound": "O=C(CCN1CCN(Cc2ccccc2)CC1)c1ccc(Br)s1", "note": "[Example 57, 1-(5″-Bromo-2″-thieny)-3-(4′-benzy-1′-piperazinyl)-1-propanone dihydrochloride]", "pIC50": 5.17}, {"compound": "Cl.Cl.O=C(CCN1CCN(Cc2ccccc2)CC1)c1ccc([N+](=O)[O-])cc1", "note": "[Example 5, 1-p-Nitrophenyl)-3-(4′-benzyl-1′-piperaziny)-1-propanone dihydrochloride]", "pIC50": 5.30}, {"compound": "O=C(CCN1CCN(Cc2ccccc2)CC1)c1cccc([N+](=O)[O-])c1", "note": "[Example 11, 1-(m-Nitrophenyl)-3-(4′-benzyl-1′-piperazinyl)-1-propanone dihydrochloride]", "pIC50": 5.38}, {"compound": "O=C(CCN1CCN(Cc2ccc(F)cc2)CC1)c1ccccc1F", "note": "[Example 44, 1-(o-Fluorophenyl)-3-[4′-(p-fluorobenzyl)-1′-piperazinyl]-1-propanone dihydrochloride]", "pIC50": 5.12}, {"compound": "O=C(CCN1CCN(Cc2ccccc2)CC1)c1ccccc1F", "note": "[Example 13, 1-(o-Fluorophenyl)-3-(4′-benzyl-1′-piperazinyl)-1-propanone dihydrochloride]", "pIC50": 4.96}]}, {"system": "TG3 immunoreactivity in OKA treated MSN1a cells", "experiment": "MSN1a cell culture model, ELISA with TG3 antibody, okadaic acid treated cells", "format": "cell-based, human", "conditions": "Homo sapiens, 1 μM OKA, 2 hrs at 37° C., read-out: IC50 for inhibition of TG3 immunoreactivity in OKA treated MSN1a cells", "experimental": "as §1, §2, §3, §4", "values": [{"compound": "CS(=O)(=O)Nc1ccc(C(=O)CCN2CCN(Cc3ccccc3)CC2)cc1", "note": "[Example 26, 1-[-p-(Methanesulfonamido)phenyl]-3-(4′-benzyl-1′-piperazinyl)-1-propanone dihydrochloride]", "pIC50": 4.83}, {"compound": "O=C(CCN1CCN(Cc2ccccc2)CC1)c1ccc(Sc2ccccc2)cc1", "note": "[Example 69, 1-p-Phenylthiophenyl-3-(4′-benzyl-1′-piperazinyl)-3-propanone dihydrochlonde]", "pIC50": 4.82}, {"compound": "O=C(CCN1CCN(Cc2ccccc2)CC1)c1cccn1S(=O)(=O)c1ccccc1", "note": "[Example 91, 1-(N-Phenylsulfonylpyrrol-2-yl)-3-(4′-benzyl-1′-piperazinyl)-1-propanone dihydrochloride]", "pIC50": 5.02}, {"compound": "Cc1ccc(C(=O)CCN2CCN(Cc3ccccc3)CC2)o1", "note": "[Example 67, 1-(5″-Methyl-2″-furanyl)-3-(4′-benzyl-1′-piperazinyl)-1-propanone hydrochloride]", "pIC50": 4.70}, {"compound": "O=C(CCN1CCC(C(=O)c2ccc(F)cc2)CC1)c1csc([N+](=O)[O-])c1", "note": "[Example 98, 1-(2″-Nitro-4″-thienyl)-3-(4′-p-fluorobenzoyl-1′-piperidinyl)-1-propanone hydrochloride]", "pIC50": 4.47}, {"compound": "O=C(CCN1CCN(Cc2ccccc2)CC1)c1ccc2c(c1)OCCO2", "note": "[Example 19, 1-(2″,3″-Dihydro-1″,4″-benzodioxan-6″-yl)-3-(4′-benzyl-1′-piperazinyl)-1-propanone dihydrochloride]", "pIC50": 4.81}]}, {"system": "not given", "experiment": "not given", "conditions": "not given", "values": [{"compound": "O=C(CCN1CCN(C(c2ccccc2)c2ccc(Cl)cc2)CC1)c1cccs1", "note": "(centres unmarked) (as salt: hydrochloride) [Example 89, 1-(2″-Thienyl)-3-[4′-(1′″-p-chlorophenyl-1′″-phenylmethyl)-1′-piperazinyl]-1-propanone dihydrochloride]", "melting point": "189 to 201 °C"}, {"compound": "Cc1c(C(=O)CCN2CCN(Cc3ccccc3)CC2)sc2ccc(Cl)cc12", "note": "(as salt: hydrochloride) [Example 82, 1-(5″-Chloro-3″-methylbenzo[b]-2″-thienyl)-3-(4′-benzyl-1′-piperazinyl)-1-propanone dihydrochloride]", "melting point": "247 °C (dec.)"}, {"compound": "O=C(CCN1CCN(Cc2ccccc2)CC1)c1ccc(Sc2ccccc2)cc1", "note": "(as salt: hydrochloride) [Example 69, 1-p-Phenylthiophenyl-3-(4′-benzyl-1′-piperazinyl)-3-propanone dihydrochlonde]", "melting point": "210 °C (dec.)"}, {"compound": "O=C(CCN1CCN(Cc2ccccc2)CC1)c1cccn1S(=O)(=O)c1ccccc1", "note": "(as salt: hydrochloride) [Example 91, 1-(N-Phenylsulfonylpyrrol-2-yl)-3-(4′-benzyl-1′-piperazinyl)-1-propanone dihydrochloride]", "melting point": "215 °C (dec.)"}, {"compound": "O=C(CCN1CCN(Cc2ccccc2)CC1)c1ccc2c(c1)-c1ccccc1-2", "note": "[Example 58, 1-(Biphenylen-2″-yl)-3-(4′-benzyl-1′-piperazinyl)-1-propanone]", "melting point": "133 to 134 °C"}, {"compound": "COc1ccc(C(=O)CCN2CCN(Cc3ccccc3)CC2)c2ccccc12", "note": "(as salt: hydrochloride) [Example 79, 1-(4″-Methoxy-1″-naphthalenyl)-3-(4′-benzyl-1′-piperazinyl)-1-propanone dihydrochloride]", "melting point": "230 °C (dec.)"}, {"compound": "O=C(CCN1CCC(Cc2ccccc2)CC1)c1ccc(Br)s1", "note": "(as salt: hydrochloride) [Example 99, 1-(5″-Bromo-2″-thienyl)-3-(4′-benzyl-1′-piperidinyl)-1-propanone hydrochloride]", "melting point": "205 to 208 °C"}, {"compound": "O=C(CCN1CCN(C(=O)c2c(F)cccc2F)CC1)c1ccc([N+](=O)[O-])cc1", "note": "(as salt: hydrochloride) [Example 40, 1-(p-Nitrophenyl)-3-[4′-(2″,6″-difluorobenzoyl)-1′-piperazinyl]-1-propanone hydrochloride]", "melting point": "225 to 227 °C"}]}]}
